These are literature values, as cited in patent publication US20030039708A1, “NON-MA HUANG HERB WEIGHT LOSS PRODUCT” (priority 2001, published 2003).

Where two headings read alike, the source gives them in different places.

The conditions of series [1]: in vivo.
For series [2] the following is noted: obese patients.
The conditions of series [3]: double-blind study.
For series [4] the following is noted: placed in water.
Test in series [5]: not given
This is another data set of the same source.

For series [6] the following is noted: in combination with diet, versus diet alone.
The conditions of series [7]: placebo group gained weight over the length of the trial.

As for `O=C(O[C@@H]1Cc2c(O)cc(O)cc2O[C@@H]1c1cc(O)c(O)c(O)c1)c1cc(O)c(O)c(O)c1` [Epigallocatechin gallate], in series [1], the blood cholesterol result is on record as “significantly reduced”, the blood triglyceride entry was “significantly reduced”, the body weight result is given as “significantly reduced” and the food intake result is recorded as “significantly reduced”. Further, the “growth of the prostate, uterus, and ovary” value in series [1] was “significantly reduced”.
Take `[Cr]` [chromium]: the abdominal fat gained (placebo group gained 6.5%) is recorded as 1%. The “reduction of insulin resistance” value (statistically significant, maintained at the end of eight months) is listed as 40%. For the same molecule, the lean body mass entry in series [2] is “increased”.
For the molecule Glucomannan, in series [3], the HDL cholesterol entry is given as “no significant increase”, the LDL cholesterol result is listed as “significant reductions”, the systolic blood pressure result is recorded as “reduced” and the total cholesterol result is “significant reductions”. Besides, the triglycerides entry in series [3] is “significant reductions”. In series [4], the swelling in water result is on record as “up to 17 times its original volume”. In addition, the tolerability entry in series [5] (long term treatment of severe obesity) is “well tolerated”. In series [5] (severely obese patients, diet plus glucomannan), the “weight loss in relation to the fatty mass alone” value is listed as “more significant weight loss”. For the same molecule, in series [6], the blood glucose entry was “more effective than diet alone”; the body weight result was “more effective than diet alone”; the “hunger and satiety sensation” value is reported as “more effective than diet alone”; the total serum cholesterol entry is recorded as “more effective than diet alone”. Besides, the body weight change result in series [7] is recorded as “weight loss”.
